# Laboratory results from PubChem BioAssay AID2060900 (Molecular Pharmacology Branch, DTP, NCI, 2025).
# Tested on: 521955-158-R2-J5-PDC complex spheroids, viability
# Assay: Anticancer human tumor 521955-158-R2-J5-PDC patient-derived pancreatic carcinoma cell line growth inhibition [RAS]
# Settings: for IC50: curve of first compound; for viability, T/C: stronger effect = lower value
# Outline: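 Tumour cells grown as complex spheroids with HUVEC endothelial cells and mesenchymal stem cells, treated with RAS pathway inhibitor combinations. Each agent spans half-log steps from near clinical Cmax, or 10 microM where Cmax is unknown.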
# 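Further: compound exposure lasted seven days before the viability read.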
# 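Wherever viability, T/C is given: spheroids also contain HUVEC endothelial cells and mesenchymal stem cells as stroma.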
smiles,measurement,setting,value
Cc1nc(N2CCC3(CC2)COC(C)C3N)c(CO)nc1Sc1ccnc(N)c1Cl (configuration not stated) + C#Cc1c(F)ccc2cc(O)cc(-c3ncc4c(N5CC6CCC(C5)N6)nc(OCC56CCCN5CC(F)C6)nc4c3F)c12,IC50,second compound 0.0316 µM,598 nM
same,IC50,second compound 0.1 µM,177 nM
same,IC50,second compound 0.316 µM,115 nM
same,IC50,second compound 1 µM,< 31.6 nM
same,IC50,second compound 3.16 µM,< 31.6 nM
same,IC50,second compound 10 µM,< 31.6 nM
same,"viability, T/C","second compound 0.0316 µM, first compound 0.0316 µM",50.1%
same,"viability, T/C","second compound 0.0316 µM, first compound 0.1 µM",63.7%
same,"viability, T/C","second compound 0.0316 µM, first compound 0.316 µM",60.6%
same,"viability, T/C","second compound 0.0316 µM, first compound 1 µM",43.5%
same,"viability, T/C","second compound 0.0316 µM, first compound 3.16 µM",42.3%
same,"viability, T/C","second compound 0.0316 µM, first compound 10 µM",37.4%
same,"viability, T/C","second compound 0.1 µM, first compound 0.0316 µM",61.1%
same,"viability, T/C","second compound 0.1 µM, first compound 0.1 µM",58.3%
same,"viability, T/C","second compound 0.1 µM, first compound 0.316 µM",41.9%
same,"viability, T/C","second compound 0.1 µM, first compound 1 µM",37.6%
same,"viability, T/C","second compound 0.1 µM, first compound 3.16 µM",39.7%
same,"viability, T/C","second compound 0.1 µM, first compound 10 µM",28.2%
same,"viability, T/C","second compound 0.316 µM, first compound 0.0316 µM",63.1%
same,"viability, T/C","second compound 0.316 µM, first compound 0.1 µM",46.2%
same,"viability, T/C","second compound 0.316 µM, first compound 0.316 µM",44.1%
same,"viability, T/C","second compound 0.316 µM, first compound 1 µM",37.7%
same,"viability, T/C","second compound 0.316 µM, first compound 3.16 µM",27.2%
same,"viability, T/C","second compound 0.316 µM, first compound 10 µM",24%
same,"viability, T/C","second compound 1 µM, first compound 0.0316 µM",45.3%
same,"viability, T/C","second compound 1 µM, first compound 0.1 µM",42.9%
same,"viability, T/C","second compound 1 µM, first compound 0.316 µM",39.3%
same,"viability, T/C","second compound 1 µM, first compound 1 µM",30.7%
same,"viability, T/C","second compound 1 µM, first compound 3.16 µM",33.2%
same,"viability, T/C","second compound 1 µM, first compound 10 µM",22.9%
same,"viability, T/C","second compound 3.16 µM, first compound 0.0316 µM",37.1%
same,"viability, T/C","second compound 3.16 µM, first compound 0.1 µM",39.7%
same,"viability, T/C","second compound 3.16 µM, first compound 0.316 µM",34.4%
same,"viability, T/C","second compound 3.16 µM, first compound 1 µM",28.3%
same,"viability, T/C","second compound 3.16 µM, first compound 3.16 µM",19%
same,"viability, T/C","second compound 3.16 µM, first compound 10 µM",20.1%
same,"viability, T/C","second compound 10 µM, first compound 0.0316 µM",48.7%
same,"viability, T/C","second compound 10 µM, first compound 0.1 µM",28.2%
same,"viability, T/C","second compound 10 µM, first compound 0.316 µM",21.3%
same,"viability, T/C","second compound 10 µM, first compound 1 µM",18.5%
same,"viability, T/C","second compound 10 µM, first compound 3.16 µM",13.7%
same,"viability, T/C","second compound 10 µM, first compound 10 µM",5%
